According to US9833497B2, “Human originated EGF domain proteins and use of the same” (CHENGDU SOURCEBIO LIMITED-LIABILITY COMPANY, priority 2013, dated 2017):

Assays:
Format in all cases: cell-based
[1] = system: Citrobacter diversus; experiment: MIC against Gram-negative bacteria: Citrobacter diversus; details: for MIC against C. diversus: Citrobacter diversus; for MIC against C. diversus / MIC (μg/mL) C. diversus: 5×10^5 CFU/mL
Summary of the method: (§1)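 MIC = lowest concentration of recombinant protein showing no growth. Test proteins: purified human-derived EGF domain proteins, two-fold dilution series, three wells per concentration; inoculum 5×10^5 CFU/mL in LB; incubation 37° C with shaking at 175 rpm.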

[2] = system: Aeromonas hydrophila; experiment: MIC against Gram-negative bacteria: Aeromonas hydrophila; details: for MIC against A. hydrophila: Aeromonas hydrophila; for MIC against A. hydrophila / MIC (μg/mL) A. hydrophila: 5×10^5 CFU/mL
Summary of the method: as §1

[3] = system: Pseudomonas aeruginosa; experiment: MIC against Gram-negative bacteria: Pseudomonas aeruginosa; details: for MIC against P. aeruginosa: Pseudomonas aeruginosa; for MIC against P. aeruginosa / MIC (μg/mL) P. aeruginosa: 5×10^5 CFU/mL
Summary of the method: as §1

[4] = system: Klebsiella pneumonia; experiment: MIC against Gram-negative bacteria: Klebsiella pneumonia; details: for MIC against K. pneumonia: Klebsiella pneumonia; for MIC against K. pneumonia / MIC (μg/mL) K. pneumonia: 5×10^5 CFU/mL
Summary of the method: as §1

[5] = system: E. coli DH5α; experiment: Antibacterial activity: MIC and growth curve against E. coli DH5α in 96-well plate; details: minimal inhibitory concentration against E. coli DH5α; 96-well plate, 5×10^5 CFU/mL, 37° C., judged after 8 h
Summary of the method: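 MIC taken as lowest protein level with no bacterial growth, tracked by A600 every 30 min during 37 °C, 175 rpm culture. Two-fold protein series 50-12.5 μg/mL final, triplicate wells, against 5×10^5 CFU/mL of LB-washed mid-log cells.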

[6] = system: Proteus vulgaris; experiment: MIC against Gram-negative bacteria: Proteus vulgaris; details: for MIC against P. vulgaris: Proteus vulgaris; for MIC against P. vulgaris / MIC (μg/mL) P. vulgaris: 5×10^5 CFU/mL
Summary of the method: as §1

[7] = system: Proteus mirabilis; experiment: MIC against Gram-negative bacteria: Proteus mirabilis; details: for MIC against P. mirabilis: Proteus mirabilis; for MIC against P. mirabilis / MIC (μg/mL) P. mirabilis: 5×10^5 CFU/mL
Summary of the method: as §1

[8] = system: Enterobacter cloacae; experiment: MIC against Gram-negative bacteria: Enterobacter cloacae; details: for MIC against E. cloacae: Enterobacter cloacae; for MIC against E. cloacae / MIC (μg/mL) E. cloacae: 5×10^5 CFU/mL
Summary of the method: as §1

[9] = system: Moraxella catarrhalis; experiment: MIC against Gram-negative bacteria: Moraxella catarrhalis; details: for MIC against M. catarrhalis: Moraxella catarrhalis; for MIC against M. catarrhalis / MIC (μg/mL) M. catarrhalis: 5×10^5 CFU/mL
Summary of the method: as §1

[10] = system: E. coli BL21; experiment: MIC against Gram-negative bacteria: E. coli BL21; details: E. coli BL21; for MIC against E. coli BL21 / MIC (μg/mL) E. coli BL21: 5×10^5 CFU/mL
Summary of the method: as §1

[11] = system: Serratia marcescens; experiment: MIC against Gram-negative bacteria: Serratia marcescens; details: for MIC against S. marcescens: Serratia marcescens; for MIC against S. marcescens / MIC (μg/mL) S. marcescens: 5×10^5 CFU/mL
Summary of the method: as §1

[12] = C. diversus, 10 h cultivation at 37° C.
[13] = A. hydrophila, 10 h cultivation at 37° C.
[14] = P. aeruginosa, 10 h cultivation at 37° C.
[15] = K. pneumonia, 10 h cultivation at 37° C.
[16] = P. vulgaris, 10 h cultivation at 37° C.
[17] = P. mirabilis, 10 h cultivation at 37° C.
[18] = E. cloacae, 10 h cultivation at 37° C.
[19] = M. catarrhalis, 10 h cultivation at 37° C.
[20] = S. marcescens, 10 h cultivation at 37° C.

Row | Substance | MIC [5] [µg/mL] | MIC (μg/mL) C. diversus [1, 12] [µg/mL] | MIC (μg/mL) A. hydrophila [2, 13] [µg/mL] | MIC (μg/mL) P. aeruginosa [3, 14] [µg/mL] | MIC (μg/mL) K. pneumonia [4, 15] [µg/mL] | MIC (μg/mL) P. vulgaris [6, 16] [µg/mL] | MIC (μg/mL) P. mirabilis [7, 17] [µg/mL] | MIC (μg/mL) E. cloacae [8, 18] [µg/mL] | MIC (μg/mL) M. catarrhalis [9, 19] [µg/mL] | MIC (μg/mL) E. coli BL21 ([10]; 10 h cultivation at 37° C.) [µg/mL] | MIC (μg/mL) S. marcescens [11, 20] [µg/mL] | MIC against C. diversus ([1]; 10 h cultivation at 37° C.) [µg/mL] | MIC against A. hydrophila ([2]; 10 h cultivation at 37° C.) [µg/mL] | MIC against P. aeruginosa ([3]; 10 h cultivation at 37° C.) [µg/mL] | MIC against K. pneumonia ([4]; 10 h cultivation at 37° C.) [µg/mL] | MIC against P. vulgaris ([6]; 10 h cultivation at 37° C.) [µg/mL] | MIC against P. mirabilis ([7]; 10 h cultivation at 37° C.) [µg/mL] | MIC against E. cloacae ([8]; 10 h cultivation at 37° C.) [µg/mL] | MIC against M. catarrhalis ([9]; 10 h cultivation at 37° C.) [µg/mL] | MIC against E. coli BL21 ([10]; 10 h cultivation at 37° C.) [µg/mL] | further results
1 | PRT1311 (LLDPCSKNNGGCSPYATCKSTGDGQRTCTCDTAHTVGDGLTCR; listed as Homo sapiens) | 50 |  |  |  |  |  |  |  |  |  |  |  |  |  |  |  |  |  |  |  | MIC against C. diversus ([1]; 96-well plate, 37° C., 10 h): 50 µg/mL; MIC against A. hydrophila ([2]; 96-well plate, 37° C., 10 h): 12.5 µg/mL; MIC against P. aeruginosa ([3]; 96-well plate, 37° C., 10 h): 12.5 µg/mL; MIC against K. pneumonia ([4]; 96-well plate, 37° C., 10 h): 25 µg/mL; MIC against P. vulgaris ([6]; 96-well plate, 37° C., 10 h): 25 µg/mL; MIC against P. mirabilis ([7]; 96-well plate, 37° C., 10 h): 12.5 µg/mL; MIC against E. cloacae ([8]; 96-well plate, 37° C., 10 h): 50 µg/mL; MIC against M. catarrhalis ([9]; 96-well plate, 37° C., 10 h): 25 µg/mL; MIC against E. coli BL21 ([10]; 96-well plate, 37° C., 10 h): 25 µg/mL; MIC against S. marcescens ([11]; 96-well plate, 37° C., 10 h): 25 µg/mL
2 | PRT976 (IGVRLEQLCQAGGQCVDEDSSHYCVCPEGRTGSHCE; listed as Homo sapiens) | 50 |  |  |  |  |  |  |  |  |  |  |  |  |  |  |  |  |  |  |  | MIC [1, 12]: 25 µg/mL; MIC [2, 13]: 12.5 µg/mL; MIC [3, 14]: 50 µg/mL; MIC [4, 15]: 12.5 µg/mL; MIC [6, 16]: 25 µg/mL; MIC [7, 17]: 50 µg/mL; MIC [8, 18]: 50 µg/mL; MIC [9, 19]: 25 µg/mL; MIC ([10]; 10 h cultivation at 37° C.): 12.5 µg/mL; MIC [11, 20]: 25 µg/mL
3 | PRT808 (YGPNCSSICSCNNGGTCSPVDGSCTCKEGWQGLDCT; listed as Homo sapiens) | 25 | 25 | 12.5 | 12.5 | 50 | 12.5 | 25 | 25 | 50 | 50 | 50 |  |  |  |  |  |  |  |  |  | 
4 | PRT1407 (LKTMCPDQCSGHGTYLQESGSCTCDPNWTGPDCS; listed as Homo sapiens) | 50 |  |  |  |  |  |  |  |  |  |  | 12.5 | 50 | 12.5 | 12.5 | 12.5 | 12.5 | 12.5 | 50 | 25 | MIC against S. marcescens ([11]; 10 h cultivation at 37° C.): 25 µg/mL
5 | PRT1448 (ACREGRFGQSCQEQCPGISGCRGLTFCLPDPYGCSCGSGWRGSQCQ; listed as Homo sapiens) | 25 |  |  |  |  |  |  |  |  |  |  | 25 | 12.5 | 12.5 | 25 | 12.5 | 25 | 50 | 50 | 50 | MIC against S. marcescens ([11]; 10 h cultivation at 37° C.): 25 µg/mL
6 | PRT146 (DRDECSFQPGPCSTLVQCFNTQGSFYCGACPTGWQGNGYICE; listed as Homo sapiens) | 12.5 | 25 | 12.5 | 12.5 | 50 | 12.5 | 25 | 12.5 | 12.5 | 50 | 25 |  |  |  |  |  |  |  |  |  | 
